According to US5736578A, “Ethylamido fluorenes and improved method of making same” (Bristol-Myers Squibb Company, priority 1996, dated 1998):

How the values were obtained:
human ML1A = target: T1, human ML1A (Homo sapiens, UniProt P48039); experiment: Melatonergic binding (2-[125I]-iodomelatonin displacement, NIH 3T3 cell membranes); conditions: human ML1A in NIH 3T3 membranes; 100 pM 2-[125I]-iodomelatonin; 37° C., 1 hour; read-out: Binding Affinity (IC50)
T1 construct: expressed in transfected cells; pcDNA3; membrane homogenates
Description: Measurement of Melatonergic Binding
(a) 50 mM Tris buffer containing 12.5 mM MgCl2 and 2 mM EDTA (pH 7.4 at 37° C.).
(b) Wash buffer: 20 mM Tris base containing 2 mM MgCl2 (pH 7.4 at room temperature).
(d) 2-[^125 I]-iodomelatonin (100 pM final concn.). Source: NEN
2.Membrane preparation. The receptor cDNA (human ML1A) was subcloned into pcDNA3 and introduced into NIH 3T3 cells using Lipofectamine. Transformed NIH 3T3 cells resistant to geneticin were isolated and single colonies expressing high levels of 2-[^125 I]-iodomelatonin binding were isolated and characterized. Cell pellets were frozen at -80° C. for further use. For preparing membrane homogenates, pellets are thawed on ice, and resuspended in TME buffer, Tris base, MgCl2, EDTA (pH 7.4 at 37° C.), supplemented with aprotinin, leupeptin, and phenylmethlysulfonylfluoride. The cells were then homogenized using a dounce homogenizer, and centrifuged. The resulting pellet was resuspended with a dounce homogenizer in TME and frozen. On the day of assay, the small aliquot was thawed on ice and resuspended in TME buffer.
3. Incubation: 37° C. for 1 hour. Reaction is terminated by filtration.
The procedure was based on that disclosed in: Reppert, S. M., Weaver, D. R., and Ebisawa, R. (1994), Neuron, 13, 1177-1185 (1994).

[1] = test system: Cyclic AMP Accumulation in Intact Cells: Melatonin; experiment: Functional activity: cyclic AMP accumulation in intact cells (forskolin-stimulated); assay type: cell-based; conditions: 10 min, read-out: I.A. (Intrinsic Activity) = Emax (experimental compound)/Emax (melatonin)
Description: Measurement of Functional Activity
Cyclic AMP Accumulation in Intact Cells: Melatonin
The media was removed from cell flask and washed with Hank's salt solution or PBS, as appropriate. The cells were detached from flask. Enough media was added so that the concentration of cells is 4×10^5 /ml when counted with a hemocytometer. Dialyzed or heat inactivated fetal bovine serum (FBS) was used in the media when plating the cells. 1 ml of cell suspension was put into each well, then 2 mls of media. Cells were incubated overnight.
1. Stock solution: plain media (no serum or additives)+20 mM HEPES.
2. IBMX solution: media/HEPES+1 mM IBMX.
3. Assay solution: 90% stock solution+10% IBMX solution.
Each well gets 3 mls of assay solution for preincubation and 3 mls for the assay. Each test condition is done in triplicate.
a) Basal assay solution+DMSO
b) Forskolin stimulation: 10 μM final concentration.
All tests were done in triplicate at 37° C. Plates with cells were kept in a shallow 37° C. water bath throughout the reaction. Media was taken from the wells and 3 ml of preincubation media was added. After 10 min, that solution was removed and 3 mls of drug solution was added. After 10 min, the media was removed and reaction stopped with HCl. Samples set for at least an hour at room temperature. 1 ml from each dish was taken and put into a microfuge tube and spun to remove floating cells. After dilution to 1:100 for RIA, a radioimmuno-assay was done.

circadian rhythms = conditions: rats; in words; cited from earlier work
[2] = in words; cited from earlier work
[3] = test system: jet-lag related sleep disturbances; conditions: humans; in words; cited from earlier work

T1 sequence (P48039 whole entry): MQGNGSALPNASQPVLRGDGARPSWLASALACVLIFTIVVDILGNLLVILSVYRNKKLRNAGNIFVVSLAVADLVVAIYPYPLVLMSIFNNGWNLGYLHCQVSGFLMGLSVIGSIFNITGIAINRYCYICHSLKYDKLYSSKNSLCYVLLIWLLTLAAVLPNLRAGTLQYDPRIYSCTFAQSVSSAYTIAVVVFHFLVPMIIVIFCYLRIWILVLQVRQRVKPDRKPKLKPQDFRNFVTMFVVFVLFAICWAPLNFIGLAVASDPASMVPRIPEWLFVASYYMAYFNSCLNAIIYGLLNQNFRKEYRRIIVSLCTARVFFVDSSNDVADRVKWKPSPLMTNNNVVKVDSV

| IC50 (human ML1A) [µM] | Structure (SMILES) | further results |
| --- | --- | --- |
| < 0.01 | CCC(=O)NCCC1c2cc(OC)ccc2-c2ccc(OC)cc21 [Example 5, N-[2-(2,7-dimethoxyfluoren-9-yl)ethyl]propanamide] | Emax [1]: 114% |
| < 0.1 | CCOc1ccc2c(c1)C(CCNC(=O)CC)c1cc(OC)ccc1-2 (centres unmarked) [Example 29, N-[2-(2-ethoxy-7-methoxyfluoren-9-yl)-ethyl]propanamide] |  |
| < 0.1 | COc1ccc2c(c1)C(CCCNC(C)=O)c1cc(OC)ccc1-2 [Example 20, N-[3-(2,7-dimethoxyfluoren-9-yl)prop-1-yl]acetamide] |  |
| < 0.1 | COCC(=O)NCCC1c2cc(OC)ccc2-c2ccc(OC)cc21 [Example 9, N-[2-(2,7-dimethoxyfluoren-9-yl)ethyl]methoxyacetamide] |  |
|  | COc1ccc2[nH]cc(CCNC(C)=O)c2c1 [melatonin, N-acetyl-5-methoxytryptamine] | effect of exogenous administration on circadian rhythms (circadian rhythms): synchronize circadian rhythms in rats; oral bioavailability [2]: often low and variable; treatment of jet-lag related sleep disturbances [3]: used to treat jet-lag related sleep disturbances |
| < 0.1 | CCCC(=O)NCCC1c2ccccc2-c2ccc(OC)cc21 (centres unmarked) [Example 6, N-[2-(2-methoxyfluoren-9-yl)ethyl]butanamide] |  |
|  | CCCC(=O)NCCC1c2cc(OC)ccc2-c2ccc(OC)cc21 [Example 10, N-[2-(2,7-dimethoxyfluoren-9-yl)ethyl]butanamide] | Emax [1]: 115% |
| < 0.1 | C=CC(=O)NCCC1c2ccccc2-c2ccc(OC)cc21 (centres unmarked) [Example 11, N-[2-(2-methoxyfluoren-9-yl)ethyl]-2-propenamide] |  |
| < 0.01 | COc1ccc2c(c1)C(CCNC(=O)C1CCC1)c1cc(OC)ccc1-2 [Example 13, N-[2-(2,7-dimethoxyfluoren-9-yl)ethyl]cyclobutane carboxamide] |  |
| < 0.5 | COc1ccc2c(c1)C(CCNC(=O)C(C)(C)C)c1cc(OC)ccc1-2 [Example 14, N-[2-(2,7-dimethoxyfluoren-9-yl)ethyl]-2,2-dimethyl propanamide] |  |
|  | COc1ccc2c(c1)C(CCNC(=O)C1CC1)c1cc(OC)ccc1-2 [Example 7, N-[2-(2,7-dimethoxyfluoren-9-yl)ethyl]cyclopropane carboxamide] | Emax [1]: 102% |
